From article PMC3231940, “Disposition, metabolism and mass balance of [^14C]apremilast following oral administration” (Xenobiotica; the Fate of Foreign Compounds in Biological …, 2011)
Where “and” joins values, the source holds several entries; their conditions need not be identical. Equal entries are not always repeated. Where two headings read alike, the source gives them in different places.

What was measured:
[1] = Mass balance: excretion of radioactivity in urine and faeces after a single oral [14C]apremilast dose; format: in vivo, human
Experimental: This was an open-label, inpatient, single-dose study conducted with six non-smoking healthy male volunteers, aged between 19 and 55 years, with body mass index between 19 and 29kg/m^2. Before initiation of the study, the protocol and consent form were reviewed and approved by the institutional review board. All study participants gave written informed consent before the screening process was initiated. This study was conducted in full accordance with the Declaration of Helsinki and Good Clinical (GCP) as required by and described in 21 Code of Federal Regulations.
Each subject was administered a single oral suspension of 20 mg (100 μCi) of [^14C] apremilast in distilled water (240mL total volume). Subjects were fasted for 8 h prior to and 4 h following dose administration. The residual radioactivity in the dosing vials was determined and accounted for approximately 0.3% of the total radioactivity. Dose administration, sample collection, sample processing and determination of total radioactivity were conducted at MDS Pharma Services (Lincoln, NE). Determination of apremilast in plasma, metabolite profiling and metabolite characterization were performed at XenoBiotic Laboratories, Inc. (Plainsboro, NJ).
Urine was collected pre-dose, 0-4, 4-8, 8-12, 12-24 and every 24 h thereafter up to 216h (9 days) following dose administration and was stabilized with one volume of pH 1.5 Sorensen's citrate buffer (25-mM sodium citrate buffer adjusted to pH 1.5). […] Blood (two 5-mL samples for plasma radioactivity counting, a 3-mL sample for whole blood radioactivity counting, a 2-mL sample for apremilast analysis and a 10-mL sample for metabolite profiling) was collected into heparinized tubes at pre-dose, 0.5, 1, 1.5, 2, 2.5, 3, 4, 6, 8, 12, 16, 24, 36, 48, 72, 96, 120, 144 and 168 h following dose administration. Blood samples collected for radioactivity counting were stored at or below -20°C until analysed. […] All urine, faecal homogenates and plasma samples were stored at or below -20°C until analysed.
All radioactivity determinations were performed using a Tri-Carb model 1600TR liquid scintillation counter (PerkinElmer, Wellesley, MA). For plasma and urine analysis, duplicate samples of a known volume were mixed with Ultima Gold XR scintillation cocktail and directly analysed by liquid scintillation counting. […] Using these criteria, the lower limit of quantification in plasma, blood, urine and faeces were 2.07 ng [^14C]apremilast equivalent/mL (ngEq/mL), 2.61 ngEq/g, 1.89 ngEq/mL and 2.52 ngEq/g, respectively.
The amount of total radioactivity (ngEq) in urine and faeces was determined by multiplying the volume or weight of the samples by the radioactivity concentration. […] For data values below the limit of quantification, a value of zero was assigned for calculations of means.

[2] = Apremilast in plasma by chiral LC/MS/MS, non-compartmental PK; format: in vivo, human
Experimental: Urine was collected pre-dose, 0-4, 4-8, 8-12, 12-24 and every 24 h thereafter up to 216h (9 days) following dose administration and was stabilized with one volume of pH 1.5 Sorensen's citrate buffer (25-mM sodium citrate buffer adjusted to pH 1.5). Individual faecal samples were collected pre-dose and for up to 9 days following dose administration, and homogenized using approximately three volumes by weight of pH 1.5 Sorensen's citrate buffer. Blood (two 5-mL samples for plasma radioactivity counting, a 3-mL sample for whole blood radioactivity counting, a 2-mL sample for apremilast analysis and a 10-mL sample for metabolite profiling) was collected into heparinized tubes at pre-dose, 0.5, 1, 1.5, 2, 2.5, 3, 4, 6, 8, 12, 16, 24, 36, 48, 72, 96, 120, 144 and 168 h following dose administration. Blood samples collected for radioactivity counting were stored at or below -20°C until analysed. Plasma was harvested by centrifugation from all other blood samples. The plasma samples for apremilast analysis and metabolite profiling were mixed with an equal volume of pH 1.5 Sorensen's citrate buffer containing 20-μM amastatin. All urine, faecal homogenates and plasma samples were stored at or below -20°C until analysed.
Plasma concentrations of apremilast were determined using a Chiral liquid chromatography with tandem mass spectrometry (LC/MS/MS) assay validated for concentrations between 1.00 and 1000ng/mL, with quality control (QC) samples prepared at 3.00, 50.0 and 750 ng/mL. Apremilast and (3S-cis)-(+)-tetrahydro-3,7a-diphenylpyrrolo[2, 1-b] oxazol-5(6H)-one (internal standard; IS) were extracted from 50 μL of plasma (stabilized with 50-μL Sorenson's citrate buffer) using liquid-liquid extraction with methyl tertiary butyl ether. The aqueous layer was frozen and the solvent layer was transferred to a new tube. The solvent was evaporated, the samples were reconstituted and injected for LC/MS/MS analysis using a Chiral AGP (150×4.0mm, 5 μm; Chrom Tech, Inc., Apple Valley, MN) analytical column. Positive ions were measured in the multiple reaction monitoring (MRM) mode using a Sciex API-4000 tandem mass spectrometer equipped with a Turbo IonSpray source with precursor→product ion pairs of 461.0→177.9 for apremilast and 280.1→160.3 for IS. For the QC samples, the accuracy ranged from 87.5% to 106.7%.
Pharmacokinetic data were generated by non-compartmental analysis of plasma or whole blood versus time profiles using WinNonlin (version 4.1, Enterprise Edition). For individual subjects, the peak concentration (Cmax), time to Cmax (Tmax), area under the concentration versus time curve from time zero to the last quantifiable concentration (AUC0-t), area under the concentration versus time curve from time zero to infinity (AUC0-∞ and the apparent terminal elimination half-life (t½) were determined. AUC0-t) and AUC0-∞ were calculated using the linear trapezoidal rule. AUC0-∞ was calculated as the sum of […], where Clast, is the last observed quantifiable concentration.

CCOc1cc([C@@H](CS(C)(=O)=O)N2C(=O)c3cccc(NC(C)=O)c3C2=O)ccc1OC [Apremilast, (+)-N-[2-[(lS)-1-(3-ethoxy-4-methoxyphenyl)-2-(methylsulfonyl)ethyl]-1,3-dioxo-2,3-dihydro-lH-isoindol-4-yl]acetamide]
Amount of drug absorbed ([1]; based on urinary radioactivity): at least 58% | Faecal excretion of radioactivity, mean (percentage of dose) ([1]; collection over 216 h, listed as [^14C]apremilast): 39% and 39.2% | Amount of drug absorbed ([1]; if faecal metabolites are included in the calculation): > 80% | Radioactivity recovered within the first 4 days (96 h) ([1]; urine plus faeces, 96 h after dose, listed as [^14C]apremilast): > 90% and > 92% | Plasma t½ ([2]; chiral LC/MS/MS assay, single oral 20-mg dose, mean ± SD): 6.8 ± 2.6 h | half-life ([2]; male, human, plasma, po, 20 mg, chiral LC/MS/MS assay, single oral 20-mg dose, mean ± SD, read-out: Plasma t½ (converted)): ~7 h | AUC ([2]; male, human, plasma, po, 20 mg, single oral 20-mg dose, read-out: AUC determined via LC/MS): 1910 ± 339 ng·h/mL | AUC ([2]; male, human, plasma, po, 20 mg, single oral dose 20 mg, 100 uCi, read-out: Mean AUC0 in plasma): 1970 ng·h/mL | AUC(0-t) ([2]; male, human, plasma, chiral LC/MS/MS assay, single oral 20-mg dose, mean ± SD, read-out: Plasma AUC0-t): 1910 ± 339 ng·h/mL | AUC(0-inf) ([2]; male, human, plasma, chiral LC/MS/MS assay, single oral 20-mg dose, mean ± SD, read-out: Plasma AUC0-∞): 1970 ± 343 ng·h/mL | Tmax ([2]; male, human, plasma, chiral LC/MS/MS assay, single oral 20-mg dose, median and range): < 2 h | Cmax ([2]; male, human, plasma, single oral dose 20 mg, 100 uCi): 333 ng/mL
